Measurements from patent US20260176320A1, “MODULATORS OF G-PROTEIN COUPLED RECEPTORS” (priority 2018, published 2026).
Like-named read-outs stand apart in the source and are kept apart here. Numbered stars: 1 amine (or outer) side, 2 acyl side, 3 side chain; on linkers, the order of the positions; unused ones are H or OH. Square brackets hold non-standard residues; d marks the D form. Side chains are listed from the residue outwards. Peptide text beside a SMILES is read from it. * marks the point of attachment. X9 = O=C([C@H](Cc1cc(O)no1)N[*:1])[*:2]; γGlu = O=C(O)[C@H](CCC(=O)[*:2])N[*:1]; Palmitoyl = CCCCCCCCCCCCCCCC(=O)*; X6 = O=C(CSCC(=O)*)NCCN1CCCCC1=O; Aib = CC(C)(N)C(=O)O

What was measured:
GLP-1R = GLP-1R (Homo sapiens, UniProt P43220); assay: HitHunter cAMP assay (GLP-1R); format: cell-based; details: cAMP; for Emax: read-out: (Emax) GLP-1R
GLP-1R, sequence (P43220 24-463): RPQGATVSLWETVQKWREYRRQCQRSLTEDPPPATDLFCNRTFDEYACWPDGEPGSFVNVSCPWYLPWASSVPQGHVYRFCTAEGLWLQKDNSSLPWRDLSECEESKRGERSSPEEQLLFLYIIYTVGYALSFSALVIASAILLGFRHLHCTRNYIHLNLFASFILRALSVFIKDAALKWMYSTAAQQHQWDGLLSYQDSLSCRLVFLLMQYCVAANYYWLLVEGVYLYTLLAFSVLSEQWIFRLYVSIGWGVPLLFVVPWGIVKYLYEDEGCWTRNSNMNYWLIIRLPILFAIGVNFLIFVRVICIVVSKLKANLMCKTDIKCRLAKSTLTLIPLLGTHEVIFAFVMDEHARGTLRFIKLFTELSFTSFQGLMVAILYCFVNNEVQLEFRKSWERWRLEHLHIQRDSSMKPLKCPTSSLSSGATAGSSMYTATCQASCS
In short: (§1)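 Suspension cells (10,000/well) in HBSS with 10 mM HEPES, 625 μM IBMX, 0.2% BSA exposed to 22-point 2-fold agonist series in duplicate for 30 min at room temperature. cAMP measured by antibody immunocompetition with overnight development, luminescence read-out.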

GIP-R = target: T1, GIP-R (Homo sapiens, UniProt P48546); assay: HitHunter cAMP assay (GIP-R); format: cell-based; details: cAMP; for Emax: read-out: (Emax) GIP-R
T1 sequence (P48546 22-466): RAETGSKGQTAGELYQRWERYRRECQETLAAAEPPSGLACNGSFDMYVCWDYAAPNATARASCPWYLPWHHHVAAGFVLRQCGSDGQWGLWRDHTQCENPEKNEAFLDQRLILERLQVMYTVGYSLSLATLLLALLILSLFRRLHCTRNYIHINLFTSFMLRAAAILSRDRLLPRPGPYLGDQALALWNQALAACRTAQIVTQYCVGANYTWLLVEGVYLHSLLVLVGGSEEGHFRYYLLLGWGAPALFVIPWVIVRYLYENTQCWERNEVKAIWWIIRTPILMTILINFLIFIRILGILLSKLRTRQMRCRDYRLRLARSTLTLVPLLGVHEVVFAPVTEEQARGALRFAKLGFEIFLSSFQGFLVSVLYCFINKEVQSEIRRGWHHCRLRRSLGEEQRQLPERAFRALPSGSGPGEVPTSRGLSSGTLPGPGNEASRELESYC
In short: as §1

[1] = Table 3, read-out: EC50 GLP-1R/nM
[2] = Table 3A, read-out: EC50 GLP-1R/nM
[3] = Table 3, read-out: EC50 GIP-R/nM
[4] = Table 3A, read-out: EC50 GIP-R/nM

| SMILES | Emax (GLP-1R; Table 3) | EC50 (GLP-1R; [1]) | Emax (GLP-1R; Table 3A) | EC50 (GLP-1R; [2]) | Emax (GIP-R; Table 3) | EC50 (GIP-R; [3]) | Emax (GIP-R; Table 3A) | EC50 (GIP-R; [4]) | EC50 (GLP-1R; EC50 GLP-1R/nM, Table 3) | EC50 (GLP-1R; EC50 GLP-1R/nM, Table 3A) | EC50 (GIP-R; EC50 GIP-R/nM, Table 3) | EC50 (GIP-R; EC50 GIP-R/nM, Table 3A) | Emax at 1 µM (GIP-R; read-out: (Emax) GIP-R at 1 μM, Table 3, at 1 μM) |
| --- | --- | --- | --- | --- | --- | --- | --- | --- | --- | --- | --- | --- | --- |
| CCCCCCCCCCCCCCCC(=O)N[C@@H](CCC(=O)NCCCC[C@H](NC(=O)[C@H](CO)NC(=O)[C@@H]1CCCN1C(=O)[C@@H]1CCCN1C(=O)[C@@H]1CCCN1C(=O)[C@H](C)NC(=O)CNC(=O)[C@H](CO)NC(=O)[C@H](CO)NC(=O)[C@@H]1CCCN1C(=O)CNC(=O)CNC(=O)[C@H](C)NC(=O)[C@H](CC(C)C)NC(=O)[C@H](CC(C)C)NC(=O)[C@H](Cc1c[nH]c2ccccc12)NC(=O)[C@H](CC(N)=O)NC(=O)[C@@H](NC(=O)[C@H](Cc1ccccc1)NC(=O)[C@H](CCC(=O)O)NC(=O)C(C)(C)NC(=O)[C@H](C)NC(=O)[C@H](C)NC(=O)[C@H](CCC(N)=O)NC(=O)[C@H](CCCCN)NC(=O)[C@H](CC(=O)O)NC(=O)[C@](C)(CC(C)C)NC(=O)[C@H](Cc1ccc(O)cc1)NC(=O)[C@@H](NC(=O)[C@H](CO)NC(=O)[C@H](Cc1ccc(O)cc1)NC(=O)[C@H](CC(=O)O)NC(=O)[C@H](CO)NC(=O)[C@@H](NC(=O)[C@H](Cc1ccccc1)NC(=O)[C@@H](NC(=O)CNC(=O)[C@H](CCC(=O)O)NC(=O)CSCC(=O)NCCN1C(=O)CSC1=O)[C@@H](C)O)[C@@H](C)O)[C@@H](C)CC)C(C)C)C(N)=O)C(=O)O [Compound 70] | 102% | 0.1 to 1 nM | 102% | 0.1 to 1 nM | 86% | 1 to 10 nM | 86% | 1 to 10 nM |  |  |  |  |  |
| CCCCCCCCCCCCCCCC(=O)N[C@@H](CCC(=O)NCCCC[C@H](NC(=O)[C@H](CO)NC(=O)[C@@H]1CCCN1C(=O)[C@@H]1CCCN1C(=O)[C@@H]1CCCN1C(=O)[C@H](C)NC(=O)CNC(=O)[C@H](CO)NC(=O)[C@H](CO)NC(=O)[C@@H]1CCCN1C(=O)CNC(=O)CNC(=O)[C@H](C)NC(=O)[C@H](CC(C)C)NC(=O)[C@H](CC(C)C)NC(=O)[C@H](Cc1c[nH]c2ccccc12)NC(=O)[C@H](CC(N)=O)NC(=O)[C@@H](NC(=O)[C@H](Cc1ccccc1)NC(=O)[C@H](CCC(=O)O)NC(=O)C(C)(C)NC(=O)[C@H](C)NC(=O)[C@H](C)NC(=O)[C@H](CCC(N)=O)NC(=O)[C@H](CCCCN)NC(=O)[C@H](CC(=O)O)NC(=O)[C@H](CC(C)C)NC(=O)[C@H](Cc1ccc(O)cc1)NC(=O)[C@@H](NC(=O)[C@H](CO)NC(=O)[C@H](Cc1ccc(O)cc1)NC(=O)[C@H](CC(=O)O)NC(=O)[C@H](CO)NC(=O)[C@@H](NC(=O)[C@H](Cc1ccccc1)NC(=O)[C@@H](NC(=O)CNC(=O)[C@H](CCC(=O)O)NC(=O)CSCC(=O)NCCN1C(=O)C[C@H](O)C1=O)[C@@H](C)O)[C@@H](C)O)[C@@H](C)CC)C(C)C)C(N)=O)C(=O)O [Compound 78] | 94% |  | 94% |  | 58% |  | 58% |  | 0.1 to 1 nM | 0.1 to 1 nM | 1 to 10 nM | 1 to 10 nM |  |
| CCCCCCCCCCCCCCCC(=O)N[C@@H](CCC(=O)NCCCC[C@H](NC(=O)[C@H](CO)NC(=O)[C@@H]1CCCN1C(=O)[C@@H]1CCCN1C(=O)[C@@H]1CCCN1C(=O)[C@H](C)NC(=O)CNC(=O)[C@H](CO)NC(=O)[C@H](CO)NC(=O)[C@@H]1CCCN1C(=O)CNC(=O)CNC(=O)[C@H](C)NC(=O)[C@H](CC(C)C)NC(=O)[C@H](CC(C)C)NC(=O)[C@H](Cc1c[nH]c2ccccc12)NC(=O)[C@H](CC(N)=O)NC(=O)[C@@H](NC(=O)[C@H](Cc1ccccc1)NC(=O)[C@H](CCC(=O)O)NC(=O)C(C)(C)NC(=O)[C@H](C)NC(=O)[C@H](C)NC(=O)[C@H](CCC(N)=O)NC(=O)[C@H](CCCCN)NC(=O)[C@H](CC(=O)O)NC(=O)[C@H](CC(C)C)NC(=O)[C@H](Cc1ccc(O)cc1)NC(=O)[C@@H](NC(=O)[C@H](CO)NC(=O)[C@H](Cc1ccc(O)cc1)NC(=O)[C@H](CC(=O)O)NC(=O)[C@H](CO)NC(=O)[C@@H](NC(=O)[C@H](Cc1ccccc1)NC(=O)[C@@H](NC(=O)CNC(=O)[C@H](Cc1cc(O)no1)NC(=O)CSCC(=O)NCCN1CCCCC1=O)[C@@H](C)O)[C@@H](C)O)[C@@H](C)CC)C(C)C)C(N)=O)C(=O)O [Compound 292] (X6-[X9]GTFTSDYSIYLDKQAA[Aib]EFVNWLLAGGPSSGAPPPSK([γGlu-Palmitoyl])-NH2) |  |  | 90% | 1 to 10 nM |  |  | 50% | 10 to 100 nM |  |  |  |  |  |
| CCCCCCCCCCCCCCCC(=O)N[C@@H](CCC(=O)NCCCC[C@H](NC(=O)[C@H](CO)NC(=O)[C@@H]1CCCN1C(=O)[C@@H]1CCCN1C(=O)[C@@H]1CCCN1C(=O)[C@H](C)NC(=O)CNC(=O)[C@H](CO)NC(=O)[C@H](CO)NC(=O)[C@@H]1CCCN1C(=O)CNC(=O)CNC(=O)[C@H](C)NC(=O)[C@H](CC(C)C)NC(=O)[C@H](CC(C)C)NC(=O)[C@H](Cc1c[nH]c2ccccc12)NC(=O)[C@H](CC(N)=O)NC(=O)[C@@H](NC(=O)[C@H](Cc1ccccc1)NC(=O)[C@H](CCC(=O)O)NC(=O)C(C)(C)NC(=O)[C@H](C)NC(=O)[C@H](C)NC(=O)[C@H](CCC(N)=O)NC(=O)[C@H](CCCCN)NC(=O)[C@H](CC(=O)O)NC(=O)[C@H](CC(C)C)NC(=O)[C@H](Cc1ccc(O)cc1)NC(=O)[C@@H](NC(=O)[C@H](CO)NC(=O)[C@H](Cc1ccc(O)cc1)NC(=O)[C@H](CC(=O)O)NC(=O)[C@H](CO)NC(=O)[C@@H](NC(=O)[C@H](Cc1ccccc1)NC(=O)[C@@H](NC(=O)CNC(=O)[C@H](CCC(=O)O)NC(=O)CSCC(=O)NCCC1CCCC1)[C@@H](C)O)[C@@H](C)O)[C@@H](C)CC)C(C)C)C(N)=O)C(=O)O [Compound 57] | 109% | 0.1 to 1 nM | 109% | 0.1 to 1 nM |  |  |  |  |  |  |  |  | 7% |
| CCCCCCCCCCCCCCCC(=O)N[C@@H](CCC(=O)NCCCC[C@H](NC(=O)[C@H](CO)NC(=O)[C@@H]1CCCN1C(=O)[C@@H]1CCCN1C(=O)[C@@H]1CCCN1C(=O)[C@H](C)NC(=O)CNC(=O)[C@H](CO)NC(=O)[C@H](CO)NC(=O)[C@@H]1CCCN1C(=O)CNC(=O)CNC(=O)[C@H](C)NC(=O)[C@H](CC(C)C)NC(=O)[C@H](CC(C)C)NC(=O)[C@H](Cc1c[nH]c2ccccc12)NC(=O)[C@H](CC(N)=O)NC(=O)[C@@H](NC(=O)[C@H](Cc1ccccc1)NC(=O)[C@H](CCC(=O)O)NC(=O)C(C)(C)NC(=O)[C@H](C)NC(=O)[C@H](C)NC(=O)[C@H](CCC(N)=O)NC(=O)[C@H](CCCCN)NC(=O)[C@H](CC(=O)O)NC(=O)[C@H](CC(C)C)NC(=O)[C@H](Cc1ccc(O)cc1)NC(=O)[C@@H](NC(=O)[C@H](CO)NC(=O)[C@H](Cc1ccc(O)cc1)NC(=O)[C@H](CC(=O)O)NC(=O)[C@H](CO)NC(=O)[C@@H](NC(=O)[C@H](Cc1ccccc1)NC(=O)[C@@H](NC(=O)CNC(=O)[C@H](CCC(=O)O)NC(=O)CSCC(=O)NCCN1C(=O)C[C@H](OC)C1=O)[C@@H](C)O)[C@@H](C)O)[C@@H](C)CC)C(C)C)C(N)=O)C(=O)O [Compound 49] | 101% |  | 101% |  | 48% |  | 48% |  | 0.1 to 1 nM | 0.1 to 1 nM | 0.1 to 1 nM | 0.1 to 1 nM |  |
| CC[C@H](C)[C@H](NC(=O)[C@H](CO)NC(=O)[C@H](Cc1ccc(O)cc1)NC(=O)[C@H](CC(=O)O)NC(=O)[C@H](CO)NC(=O)[C@@H](NC(=O)[C@H](Cc1ccccc1)NC(=O)[C@@H](NC(=O)CNC(=O)[C@H](CCC(=O)O)NC(=O)CC(=O)NCCCN1C(=O)c2ccccc2C1=O)[C@@H](C)O)[C@@H](C)O)C(=O)N[C@@H](Cc1ccc(O)cc1)C(=O)N[C@@H](CC(C)C)C(=O)N[C@@H](CC(=O)O)C(=O)N[C@@H](CCCCN)C(=O)N[C@@H](CCC(N)=O)C(=O)N[C@@H](C)C(=O)N[C@@H](C)C(=O)NC(C)(C)C(=O)N[C@@H](CCC(=O)O)C(=O)N[C@@H](Cc1ccccc1)C(=O)N[C@H](C(=O)N[C@@H](CC(N)=O)C(=O)N[C@@H](Cc1c[nH]c2ccccc12)C(=O)N[C@@H](CC(C)C)C(=O)N[C@@H](CC(C)C)C(=O)N[C@@H](C)C(=O)NCC(=O)NCC(=O)N1CCC[C@H]1C(=O)N[C@@H](CO)C(=O)N[C@@H](CO)C(=O)NCC(=O)N[C@@H](C)C(=O)N1CCC[C@H]1C(=O)N1CCC[C@H]1C(=O)N1CCC[C@H]1C(=O)N[C@@H](CO)C(=O)N[C@@H](CCCCN)C(N)=O)C(C)C [Compound 125] | 94 to 100% | 10 to 100 nM | 94 to 100% | 10 to 100 nM | 54 to 60% | 1 to 10 nM | 54 to 60% | 1 to 10 nM |  |  |  |  |  |
